Source: the supplement of paper PMC10307832

Assays:
Assay in all cases: relative viability (nuclei count vs DMSO), 5 days (fraction); higher = more cells survive
EHT 1864 + Vorinostat = compound: C1COCCN1CC2=CC(=O)C(=CO2)OCCCCCSC3=C4C=CC(=CC4=NC=C3)C(F)(F)F [EHT 1864] + O=C(CCCCCCC(=O)Nc1ccccc1)NO [Vorinostat] (partner 1 µM)
Summary of the method: (§1)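 Cells from lung cancer lines were seeded into 1536-well plates and, one day later, dosed by pin tool. Treatments were either a single drug or a fixed dose of an anchor drug with five library-drug doses (not always all listed) in √10 steps. After 5 days, nuclei were stained in a one-step fixation (final 0.05% Triton X-100, 1% formaldehyde, 1 ug/ml Hoechst) and counted on 4× images, and relative viability is the treated-to-vehicle nuclei ratio, as the median of duplicate plates.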

EHT 1864 + Linsitinib = compound: C1COCCN1CC2=CC(=O)C(=CO2)OCCCCCSC3=C4C=CC(=CC4=NC=C3)C(F)(F)F [EHT 1864] + C[C@]1(O)C[C@@H](c2nc(-c3ccc4ccc(-c5ccccc5)nc4c3)c3c(N)nccn32)C1 [Linsitinib] (partner 1 µM)
Summary of the method: as §1

EHT 1864 + Navitoclax = compound: C1COCCN1CC2=CC(=O)C(=CO2)OCCCCCSC3=C4C=CC(=CC4=NC=C3)C(F)(F)F [EHT 1864] + CC1(C)CCC(c2ccc(Cl)cc2)=C(CN2CCN(c3ccc(C(=O)NS(=O)(=O)c4ccc(N[C@H](CCN5CCOCC5)CSc5ccccc5)c(S(=O)(=O)C(F)(F)F)c4)cc3)CC2)C1 [Navitoclax] (partner 0.5 µM)
Summary of the method: as §1

EHT 1864 + Pemetrexed = compound: C1COCCN1CC2=CC(=O)C(=CO2)OCCCCCSC3=C4C=CC(=CC4=NC=C3)C(F)(F)F [EHT 1864] + Nc1nc2[nH]cc(CCc3ccc(C(=O)N[C@@H](CCC(=O)O)C(=O)O)cc3)c2c(=O)[nH]1 [Pemetrexed] (partner 0.2 µM)
Summary of the method: as §1

Cell Line	relative viability (EHT 1864 + Vorinostat; first compound 0.04 µM)	relative viability (EHT 1864 + Vorinostat; first compound 0.1265 µM)	relative viability (EHT 1864 + Vorinostat; first compound 0.4 µM)	relative viability (EHT 1864 + Vorinostat; first compound 1.265 µM)	relative viability (EHT 1864 + Vorinostat; first compound 4 µM)	relative viability (EHT 1864 + Linsitinib; first compound 0.04 µM)	relative viability (EHT 1864 + Linsitinib; first compound 0.1265 µM)	relative viability (EHT 1864 + Linsitinib; first compound 0.4 µM)	relative viability (EHT 1864 + Linsitinib; first compound 1.265 µM)	relative viability (EHT 1864 + Linsitinib; first compound 4 µM)	relative viability (EHT 1864 + Navitoclax; first compound 0.04 µM)	relative viability (EHT 1864 + Navitoclax; first compound 0.1265 µM)	relative viability (EHT 1864 + Navitoclax; first compound 0.4 µM)	relative viability (EHT 1864 + Navitoclax; first compound 1.265 µM)	relative viability (EHT 1864 + Navitoclax; first compound 4 µM)	relative viability (EHT 1864 + Pemetrexed; first compound 0.04 µM)	relative viability (EHT 1864 + Pemetrexed; first compound 0.1265 µM)	relative viability (EHT 1864 + Pemetrexed; first compound 0.4 µM)	relative viability (EHT 1864 + Pemetrexed; first compound 1.265 µM)	relative viability (EHT 1864 + Pemetrexed; first compound 4 µM)
201T	0.901	0.876	1.01	0.923	0.811	1.08	1.05	1.08	0.925	1.03	1.27	1.2	1.22	1.15	1.16	0.346	0.326	0.351	0.266	0.291
A-427	0.928	0.819	0.885	0.879	0.801	1.09	1.18	1.15	1.11	1.13	1.15	0.941	0.823	0.911	0.884	0.979	1.01	0.952	0.931	0.935
ABC-1	1.22	0.978	0.928	1.07	1.12	0.769	0.797	0.73	0.718	0.555										
BEN	0.528	0.579	0.636	0.648	0.57	0.862	0.801	0.879	0.851	0.985	0.0831	0.0599	0.0547	0.075	0.238	0.763	0.678	0.908	0.697	0.715
CAL-12T	0.671	0.553	0.644	0.775	0.812	0.824	0.667	0.79	0.824	0.838	1.03	1.07	1.04	1.19	1.22	1.08	1.12	1.09	1.18	0.964
COR-L23	0.476	0.333	0.476	0.435	0.433	0.94	0.921	0.942	0.949	0.873	1.01	0.901	1.01	0.979	0.932	0.197	0.193	0.196	0.194	0.214
COR-L 105	0.99	0.699	0.949	0.847	0.778	0.889	0.963	0.906	1.12	0.848	0.883	0.783	0.801	0.707	0.723	1.03	1.06	0.966	1.01	0.984
Calu-6						0.99	0.737	0.96	0.875	0.893	0.816	0.7	0.876	0.757	0.764					
ChaGo-K-1	0.785	0.76	0.72	0.811	0.76						1.07	0.938	0.802		1.07	0.261	0.27	0.25	0.264	0.256
EKVX	0.749	0.524	0.69	0.743	0.631	0.886	0.976	1.04	1.08	1.02	0.937	0.906	0.88	0.857	1.03	0.362	0.381	0.404	0.34	0.495
EMC-BAC-2	0.45	0.383	0.503	0.427	0.504	0.803	0.757	0.792	0.815	0.784	1.09	1.09	1.12	1.13	1.2	0.454	0.421	0.491	0.439	0.432
EPLC-272H	0.454	0.565	0.567	0.662	0.33	1.4	1.16	1.04	1.32	1.25	1.11	1.05	1.18	1.28	1.24	0.317	0.332	0.317	0.365	0.356
H3255	0.752	0.717		0.851	0.794	0.934	0.848	1.04	1	0.898	0.561	0.506	0.457	0.441	0.448	0.532	0.603	0.576	0.572	0.561
HARA	0.514	0.366	0.715	0.582	0.229	0.963	0.928	1.08	0.983	1.01	1.11	1.15	1.1	1.19	0.996	0.27		0.267	0.3	0.234
HCC-15	0.77		0.838	0.81	0.929	0.877	0.827	0.888	0.86	0.922	0.732	0.576	0.682	0.649	0.736	0.224		0.24	0.226	0.218
HCC-44	1.08	0.984	1.06	1.08	1.13	0.692	0.58	0.598	0.642	0.621	1.02	0.951	0.905	0.904	1.08	0.603	0.594	0.618	0.674	0.674
HCC-78	0.377	0.429	0.421	0.429	0.467	0.555	0.452	0.394	0.486	0.809	0.618	0.746	0.693	0.685	1.1	0.868	0.866	0.823	0.889	0.937
HCC-366	0.336	0.0895	0.312	0.327	0.337	0.647		0.699	0.598	0.522	1.14		1.01	0.995	1.14	0.159	0.145	0.136	0.15	0.152
HCC-827	0.932	0.59	0.843	0.96	0.602	0.953	0.858	1.01	0.926	0.876	1.1	0.844	0.96	1.02	0.944	0.279	0.27	0.227	0.3	0.235
HOP-62	0.631		0.616	0.676	0.667	1.13		0.865	0.943	1.03	0.915		1.02	0.977	1.22	0.438		0.269	0.388	0.314

Cell Line	relative viability (EHT 1864 + Vorinostat; first compound 0.04 µM)	relative viability (EHT 1864 + Vorinostat; first compound 0.1265 µM)	relative viability (EHT 1864 + Vorinostat; first compound 0.4 µM)	relative viability (EHT 1864 + Vorinostat; first compound 1.265 µM)	relative viability (EHT 1864 + Vorinostat; first compound 4 µM)	relative viability (EHT 1864 + Linsitinib; first compound 0.04 µM)	relative viability (EHT 1864 + Linsitinib; first compound 0.1265 µM)	relative viability (EHT 1864 + Linsitinib; first compound 0.4 µM)	relative viability (EHT 1864 + Linsitinib; first compound 1.265 µM)	relative viability (EHT 1864 + Linsitinib; first compound 4 µM)	relative viability (EHT 1864 + Navitoclax; first compound 0.04 µM)	relative viability (EHT 1864 + Navitoclax; first compound 0.1265 µM)	relative viability (EHT 1864 + Navitoclax; first compound 0.4 µM)	relative viability (EHT 1864 + Navitoclax; first compound 1.265 µM)	relative viability (EHT 1864 + Navitoclax; first compound 4 µM)	relative viability (EHT 1864 + Pemetrexed; first compound 0.04 µM)	relative viability (EHT 1864 + Pemetrexed; first compound 0.1265 µM)	relative viability (EHT 1864 + Pemetrexed; first compound 0.4 µM)	relative viability (EHT 1864 + Pemetrexed; first compound 1.265 µM)	relative viability (EHT 1864 + Pemetrexed; first compound 4 µM)
IA-LM	0.917		0.853	0.946	1.24	0.524	0.325	0.572	0.463	0.644	0.697	0.653	0.775	0.803	0.569					
LC-2-ad	0.659	0.432	0.677	0.648	0.625	0.862		0.806	0.804	0.79	0.49		0.49	0.382	0.39	0.265	0.271	0.247	0.274	0.308
LCLC-97TM1	0.848	0.509	0.813	0.613	0.74	0.202		0.148	0.168	0.233	0.414		0.342	0.339	0.503	0.205	0.15	0.169	0.185	0.15
LCLC-103H	0.758	0.666	0.791	0.779	0.712	1.12	0.83	1.01	1.09	1.39						0.431	0.45	0.506	0.468	0.5
LK-2	0.312	0.265	0.206	0.253	0.284	0.543	0.527	0.538	0.623	0.724	0.839	0.674	0.847	0.94	0.784	0.305		0.259	0.288	0.25
LOU-NH91	0.924	0.799	1.02	0.876	0.856	0.975	0.875	1.06	1.1	0.767	0.693	0.652	0.789	0.694	0.567	0.347	0.382	0.396	0.421	0.391
NCI-H358	0.645	0.652	0.612	0.68	0.559	0.759		0.738	0.794	0.639						0.173	0.169	0.178	0.189	0.168
NCI-H522	0.76	0.738	0.901	0.893	1.03											1.29	0.75	0.977	1.16	1.18
NCI-H650	0.497	0.308	0.413	0.457	0.478	0.94		1.01	0.947	0.884						0.975	0.75	0.968	0.947	0.927
NCI-H661	0.836	0.685	0.773	0.697	0.712	0.603	0.516	0.535	0.512	0.449						0.904	0.884	0.871	0.844	0.682
NCI-H727	1.47	1.31	1.07	1.26	1.29	0.272	0.366	0.349		0.319	0.554	0.507	0.348		0.324					
NCI-H1563						1.17	1.3	1.24	1.17	0.94						0.682	0.709	0.742	0.626	0.74
NCI-H1648	0.562		0.436	0.411	0.644											0.827		0.673	0.655	0.726
NCI-H1650	0.529	0.54	0.592	0.623	0.521						1.12	0.783	1.14	1.4	1.18	0.384	0.327	0.331	0.36	0.358
NCI-H1703						0.725		0.931	0.789	0.647	1.13	0.968	0.956	0.849	0.749					
NCI-H1792						0.514	0.376	0.556	0.57	0.628	0.68	0.54	0.648	0.616	0.718	0.804		0.735	0.776	1.1
NCI-H2170	0.789	0.692	0.774	0.84	0.94						0.674	0.511	0.646	0.573	0.56	0.279	0.251	0.262	0.279	0.266
NCI-H2342	0.688	0.725	0.703	0.803	0.787											0.603	0.704	0.788	0.709	0.742
SW 900	0.54		0.531	0.589	0.467											0.477		0.463	0.473	0.446
